We go through 18 compounds from ChEMBL document CHEMBL3045776, “[1,2,4]Triazolo[4,3-a]quinoxaline: synthesis, antiviral, and antimicrobial activities” (Med Chem Res, 2012).

The test system of data set [1] is Human alphaherpesvirus 1. Description: Antiviral activity against Human herpesvirus 1 infected African green monkey Vero cells assessed as reduction of virus induced plaque formation after 66 hr. It is filed as functional. The conditions noted are these: Human alphaherpesvirus 1, 66 h.
Data set [2] can be described thus: Cytotoxicity against Chlorocebus aethiops (African green monkey) Vero cells. It is filed as cell-based. The conditions noted are these: chlorocebus sabaeus, read-out: CD50 (the source's name).
In data set [3] the test system is Human alphaherpesvirus 1. Description: Antiviral activity against Human herpesvirus 1 infected African green monkey Vero cells assessed as reduction of virus induced plaque formation at […] after 66 hr. Format: functional. Further details: scale not given: the % may be the effect or the level left.
The test system of data set [4] is Candida albicans. Description: Antifungal activity against Candida albicans at 500 ug/disk after 72 hr by disk diffusion method. Format: functional. The settings on record: read-out: IZ.
The subject of data set [5] is Escherichia coli. The data set is described as follows: Antibacterial activity against Escherichia coli at 500 ug/disk after 24 hr by disk diffusion method. The conditions noted are these: read-out: IZ. Format: functional. For orientation: In agar diffusion tests the substance spreads into inoculated agar from a disc or well.
In data set [6] the test system is Staphylococcus aureus. The data set is described as follows: Antibacterial activity against Staphylococcus aureus after 24 hr by agar dilution method. It is filed as functional. (In general: In agar dilution the substance is mixed into plates at graded concentrations.)
Data set [7] concerns Staphylococcus aureus. The data set is described as follows: Antibacterial activity against Staphylococcus aureus at 500 ug/disk after 24 hr by disk diffusion method. It is filed as functional. The settings on record: read-out: IZ.
In data set [8] the test system is Candida albicans. The data set is described as follows: Antifungal activity against Candida albicans after 48 hr by agar dilution method. Format: functional.
Data set [9] concerns Escherichia coli. Description: Antibacterial activity against Escherichia coli after 24 hr by agar dilution method. Format: functional.
Data set [10] has as its system Bacillus subtilis. The data set is described as follows: Antibacterial activity against Bacillus subtilis at 500 ug/disk after 24 hr by disk diffusion method. Format: functional. The conditions noted are these: read-out: IZ.
The test system of data set [11] is Escherichia coli. The data set is described as follows: Antibacterial activity against Escherichia coli at 50 ug/ml after 24 hr by disk diffusion method. The conditions noted are these: read-out: IZ.
Data set [12] deals with Staphylococcus aureus. The data set is described as follows: Antibacterial activity against Staphylococcus aureus at 50 ug/ml after 24 hr by disk diffusion method. The conditions noted are these: read-out: IZ.
Data set [13] deals with Bacillus subtilis. The data set is described as follows: Antibacterial activity against Bacillus subtilis after 24 hr by agar dilution method. It is filed as functional.
The test system of data set [14] is Bacillus subtilis. The data set is described as follows: Antibacterial activity against Bacillus subtilis at 50 ug/ml after 24 hr by disk diffusion method. The settings on record: read-out: IZ.
Data set [15] has as its system Candida albicans. Description: Antifungal activity against Candida albicans at 1000 ug/ml after 72 hr by disk diffusion method. Format: functional. The conditions noted are these: read-out: IZ.

≈ marks a conversion by molar mass, not a printed value. Some results are limits rather than exact numbers.

As to `Cc1ccc2nc(Cl)c3nnc(NC(=S)Nc4ccccc4)n3c2c1`, the MIC with Human alphaherpesvirus 1 [1] came to 20 µg/mL (≈ 54.2 µM). The CC50 in [2] is 200 µg/mL (≈ 542 µM). Besides, the Activity in the data set with Human alphaherpesvirus 1 [3] worked out at 25%.
On the same counts, the results for `Cc1ccc2nc(Cl)c3nnc(/N=C/c4ccc(O)cc4)n3c2c1` are 80 µg/mL (≈ 237 µM), 160 µg/mL (≈ 474 µM) and below 25%.
Consider `Cc1ccc2nc(N3CCCCC3)c3nnc(NC(=O)c4ccccc4)n3c2c1`, for which the zone of inhibition at 500 µg/disc in the data set with Candida albicans [4] was 10 mm; in the data set on Escherichia coli [5] it was 10 mm; in the data set with Staphylococcus aureus [7] it was 20 mm. In addition, the MIC was found to be 84 µg/mL (≈ 217 µM) against Staphylococcus aureus [6] and 80 µg/mL (≈ 207 µM) in the data set with Human alphaherpesvirus 1 [1]. In addition, the CC50 in data set [2] came out at 160 µg/mL (≈ 414 µM). In the data set with Human alphaherpesvirus 1 [3], the Activity is on record as below 25%.
Take `CCNC(=S)Nc1nnc2c(Cl)nc3ccc(C)cc3n12`: the MIC against Candida albicans [8] was determined as 89 µg/mL (≈ 277 µM); against Escherichia coli [9] it was 87 µg/mL (≈ 271 µM); against Staphylococcus aureus [6], 115 µg/mL (≈ 358 µM); with Human alphaherpesvirus 1 [1] it was 80 µg/mL (≈ 249 µM). The zone of inhibition at 500 µg/disc in the data set with Candida albicans [4] amounted to 20 mm; in the data set on Escherichia coli [5] it was 15 mm; in the data set with Staphylococcus aureus [7] it was 15 mm; in the data set on Bacillus subtilis [10], 10 mm. Also, in [2], the CC50 turned out to be 160 µg/mL (≈ 499 µM). Also, the Activity in the data set with Human alphaherpesvirus 1 [3] is below 25%.
On to `O=C(O)c1cn(C2CC2)c2cc(N3CCNCC3)c(F)cc2c1=O` [CIPROFLOXACIN], for which the MIC with Escherichia coli [9] was determined as 57 µg/mL (≈ 172 µM); in the data set on Staphylococcus aureus [6], 76 µg/mL (≈ 229 µM); in the data set on Bacillus subtilis [13], 62 µg/mL (≈ 187 µM). Moreover, the figures for the zone of inhibition at 50 µg/mL in the data set with Escherichia coli [11], in the data set with Staphylococcus aureus [12] and in the data set with Bacillus subtilis [14] were above 20 mm, above 20 mm and 15 mm, respectively.
`COc1ccc(/C=N/c2n[nH]c(Sc3nc4ccc(C)cc4n4c(N)nnc34)n2)cc1OC`: the MIC with Candida albicans [8] amounted to 112 µg/mL (≈ 243 µM); against Escherichia coli [9], 102 µg/mL (≈ 221 µM). Further, the zone of inhibition at 500 µg/disc in the data set on Candida albicans [4] was 20 mm; in the data set on Escherichia coli [5], 15 mm; with Staphylococcus aureus [7], 10 mm; in the data set on Bacillus subtilis [10] it was 10 mm.
Regarding `Cc1ccc2nc(Sc3nnc(-c4cccnc4)o3)c3nnc(N)n3c2c1`, the zone of inhibition at 500 µg/disc in the data set on Escherichia coli [5] came out at 10 mm. For the same compound, in the data set with Human alphaherpesvirus 1 [1], the MIC stood at 80 µg/mL (≈ 213 µM). Moreover, the CC50 in [2] was 160 µg/mL (≈ 425 µM). Also, the Activity in the data set with Human alphaherpesvirus 1 [3] was below 25%.
For `CCOC(=O)c1cnc2n(nc3c(Cl)nc4ccc(C)cc4n32)c1=O`, in the data set on Staphylococcus aureus [7], the zone of inhibition at 500 µg/disc came out at 10 mm.
With `Cc1ccc2nc(N3CCN(c4ccccc4C)CC3)c3nnc(NC(=O)c4ccccc4)n3c2c1`, the MIC with Human alphaherpesvirus 1 [1] amounted to 80 µg/mL (≈ 168 µM). Further, the CC50 in data set [2] amounted to 160 µg/mL (≈ 335 µM). In the data set with Human alphaherpesvirus 1 [3], the Activity is given as below 25%.
`COC(=O)c1cc(=O)n2nc3c(Cl)nc4ccc(C)cc4n3c2n1`: in the data set with Human alphaherpesvirus 1 [1], the MIC was determined as 80 µg/mL (≈ 233 µM). In addition, the CC50 in [2] came to 160 µg/mL (≈ 465 µM). In the data set on Human alphaherpesvirus 1 [3], the Activity was below 25%.
The matching figures for `C[C@@]1(CO)[C@H](O)CC[C@@]2(C)[C@H]1CC[C@H]1C[C@@H]3C[C@@]12CC[C@]3(O)CO` [APHIDICOLIN]: 5 µg/mL (≈ 14.8 µM), 20 µg/mL (≈ 59.1 µM) and 100%.
Consider `CC(=O)c1ccc(Nc2nc3ccc(C)cc3n3c(NC(=O)c4ccccc4)nnc23)cc1`, for which the figures for the MIC against Escherichia coli [9] and with Staphylococcus aureus [6] were 67 µg/mL (≈ 154 µM) and 94 µg/mL (≈ 215 µM), respectively. Further, the zone of inhibition at 500 µg/disc is 15 mm in the data set on Escherichia coli [5], 15 mm in the data set on Staphylococcus aureus [7] and 10 mm in the data set on Bacillus subtilis [10].
`CC(=O)Nc1nnc2c(N3CCN(c4ccccc4C)CC3)nc3ccc(C)cc3n12`: the CC50 in [2] was above 200 µg/mL.
Consider `COc1ccc(/C=N/c2nnc3c(Cl)nc4ccc(C)cc4n23)cc1OC`, for which, in the data set on Human alphaherpesvirus 1 [1], the MIC amounted to 80 µg/mL (≈ 210 µM). Further, the CC50 in [2] was determined as 160 µg/mL (≈ 419 µM). Besides, the Activity in the data set with Human alphaherpesvirus 1 [3] is below 25%.
In the data set with Candida albicans [8], `Clc1ccccc1C(c1ccccc1)(c1ccccc1)n1ccnc1` [CLOTRIMAZOLE] had an MIC of 48 µg/mL (≈ 139 µM). Also, the zone of inhibition at 1000 µg/mL in the data set with Candida albicans [15] is above 20 mm.
For `Cc1ccc2nc(Sc3nnc(-c4ccccc4O)o3)c3nnc(N)n3c2c1`, the MIC in the data set on Human alphaherpesvirus 1 [1] is 80 µg/mL (≈ 204 µM). For the same compound, the CC50 in [2] is 160 µg/mL (≈ 409 µM). Besides, the Activity with Human alphaherpesvirus 1 [3] is given as below 25%.
Turning to `Cc1ccc2nc(N3CCN(c4ccccc4C)CC3)c3nnc(N)n3c2c1`, the zone of inhibition at 500 µg/disc in the data set on Candida albicans [4], with Escherichia coli [5] and with Bacillus subtilis [10] was 10 mm throughout. The compound further had an MIC in the data set with Escherichia coli [9] of 85 µg/mL (≈ 228 µM).
In the case of `Cc1ccc2nc(Sc3nnc(-c4cccs4)n3-c3ccccc3)c3nnc(N)n3c2c1`, the MIC was 78 µg/mL (≈ 171 µM) against Candida albicans [8]; 98 µg/mL (≈ 215 µM) in the data set with Escherichia coli [9]; 124 µg/mL (≈ 272 µM) against Staphylococcus aureus [6]; 91 µg/mL (≈ 199 µM) with Bacillus subtilis [13]; 80 µg/mL (≈ 175 µM) in the data set on Human alphaherpesvirus 1 [1]. Further, the zone of inhibition at 500 µg/disc in the data set on Candida albicans [4] was determined as 20 mm; with Escherichia coli [5], 20 mm; in the data set on Staphylococcus aureus [7], 15 mm; in the data set with Bacillus subtilis [10], 15 mm. Moreover, the CC50 in data set [2] was found to be 160 µg/mL (≈ 350 µM). The Activity in the data set on Human alphaherpesvirus 1 [3] is listed as below 25%.
